Data from patent US20130310352A1, “DEXAMETHASONE COMBINATION THERAPY” (priority 2010, published 2013).

Tests used:
ARK = assay: MTS cell growth assay; format: cell-based; details: Homo sapiens, 24 hours treatment, read-out: IC50 (concentration at 50% inhibition), cell growth
Description: (§1) MM cell lines ARP1, ARK, MM.1S, MM.1R and U266 were maintained in RPMI-1640 medium supplemented with 10% fetal bovine serum, 100 U/ml penicillin and 100 μg/ml streptomycin at 37° C. and 5% CO2 Primary MM cells and MM BMSCs were isolated from bone marrow aspirates of myeloma patients. PBMCs were obtained from healthy volunteers. The study was approved by the Institutional Review Board at The University of Texas M.D. Anderson Cancer Center. Anti-caspase-3, caspase-9, PARP, Bim, XIAP, cyclin D1, pp 70S6K (Thr389) and p27(Kip1) antibodies were purchased from Cell Signaling. Anti-bcl-2, Bc1-XL, Akt, pAkt (Thr 308), pAkt (Ser 473), p70S6K and β-actin antibodies were purchased from Santa Cruz. Compound A was dissolved in DMSO at 10 mM as stock solution. Dexamethasone and Propidium iodide (PI) were purchased from Sigma-Aldrich. Recombinant human IL6 was purchased from R&D Systems. FITC conjugated Annexin V was obtained from Invitrogen.
(§2) All experiments were performed in triplicate.

ARP1 = assay: MTS cell growth assay; format: cell-based; details: Homo sapiens, ARP-1, ARP1, 24 hours treatment, read-out: IC50 (concentration at 50% inhibition), cell growth
Description: as §1, §2

MM.1R = assay: MTS cell growth assay; format: cell-based; details: Homo sapiens, 24 hours treatment, read-out: IC50 (concentration at 50% inhibition), cell growth
Description: as §1, §2

MM.1S = assay: MTS cell growth assay; format: cell-based; details: Homo sapiens, MM1.S, 24 hours treatment, read-out: IC50 (concentration at 50% inhibition), cell growth
Description: as §1, §2

U266 = assay: MTS cell growth assay; format: cell-based; details: Homo sapiens, U-266, U266, 24 hours treatment, read-out: IC50 (concentration at 50% inhibition), cell growth
Description: as §1, §2

CD138+ primary MM cells = assay: Apoptosis of primary MM cells cocultured with BMSCs ex vivo; format: cell-based, human; details: 10 μM, 24 hours, cocultured 1:1 with BMSCs
Description: as §1
(§3) Apoptotic cells were determined as Annexin V positive cells.
To evaluate compound A function in primary MM cells, the study was extended to CD138+ primary MM cells freshly isolated from myeloma patients. […]
(A). […] Compound A induced MM cell apoptosis were measured by Annexin V staining as described in Materials and Methods. […] Cell growths were assessed by MTS assay. […]

[1] = test system: CD138− stromal cells (BMSCs); assay: Cytotoxicity toward stromal cells in primary MM coculture; format: cell-based, human; details: 0 to 1 mM, 24 hours, versus primary MM cells
Description: MM cell lines ARP1, ARK, MM.1S, MM.1R and U266 were maintained in RPMI-1640 medium supplemented with 10% fetal bovine serum, 100 U/ml penicillin and 100 μg/ml streptomycin at 37° C. and 5% CO2 Primary MM cells and MM BMSCs were isolated from bone marrow aspirates of myeloma patients. PBMCs were obtained from healthy volunteers. […] Compound A was dissolved in DMSO at 10 mM as stock solution. […] FITC conjugated Annexin V was obtained from Invitrogen.
Compound A-induced cell apoptosis was detected by Annexin V binding assay as previously described (Zheng Y, Cai Z, Wang S, et al. Macrophages are an abundant component of myeloma microenvironment and protect myeloma cells from chemotherapy drug-induced apoptosis. Blood. 2009; 114 (17):3625-3628). Briefly, MM cells were cultured in 24-well plates and treated with 0 to 1 mM final concentrations of compound A for 24 or 72 hours. The cells were washed twice with cold PBS and resuspended in Annexin V binding buffer (Invitrogen). MM cells were stained with FITC-conjugated Annexin V and propidium iodide (PI) for 15 min at room temperature. Apoptotic cells were determined as Annexin V positive cells.

[2] = test system: normal PBMCs from healthy volunteers; assay: Apoptosis of normal PBMCs; format: cell-based, human; details: 24 hours
Description: as §1, §3
To examine whether compound A induces normal PBMCs apoptosis, normal PBMCs from different healthy volunteers were incubated with 0 to 1 mM compound A for 24 hours. Cells apoptosis rate were measured as described above. […] Thus, these findings indicate that compound A has low cytotoxicity toward resting PBMCs.
(A). Five MM cell lines ARP1, ARK, MM.1S, MM.1R and U266 were cultured in the presence of 0 to 1 mM compound A. Cells were harvested after 1 day or 3 days of treatment. Compound A induced MM cell apoptosis were measured by Annexin V staining as described in Materials and Methods. (B). Same MM cell lines were treated with 0 to 1 mM compound A for 1 or 3 days. Cell growths were assessed by MTS assay. (C). Representative histograms of primary MM cells treated with compound A. (D). Data from 3 patients showing a dose-dependent induction of apoptosis in freshly isolated primary MM cells. Cells were treated with different doses of compound A for 1 day. (E). PBMCs isolated from 3 healthy volunteers were treated with compound A for 1 day.

[3] = test system: PI3K-Akt-mTOR pathway in MM cells; assay: Immunoblotting, PI3K-Akt-mTOR pathway; format: cell-based, human
Description: as §1
To further analyze the signaling pathways that were affected by compound A exposure in MM cells, immunoblotting was extended to other cell signaling molecules. First, the inhibitory effect of compound A on PI3K-Akt-mTOR pathway in MM cells was tested. […] This is probably because of increased apoptotic cells after compound A treatment. […] Such findings indicate that compound A inhibits PI3K-Akt-mTOR pathways in MM cells.
(§4) (A). […] Compound A induced activation and cleavage of caspase-3, caspase-9 and PARP is shown. (B). Same MM cells treated with 10 μM compound A were lysed for western blotting. (C) RP1 cells were treated with 10 μM compound A for 1, 6, 12 and 24 hours.

[4] = test system: p27 (Kip1) and cyclin D1 in MM cells; assay: Immunoblotting, cell cycle regulators; format: cell-based, human; details: 10 μM compound A
Description: as §1, §4

[5] = test system: BimS, XIAP and Bc1-XL in MM cells; assay: Immunoblotting, apoptosis regulatory factors; format: cell-based, human; details: 10 μM compound A
Description: as §1
Next, the expressions of apoptosis regulatory factors was tested. […] Bim is a pro-apoptotic factor belonging to Bc1-2 family (O'Connor L, Strasser A, O'Reilly L A, et al. Bim: a novel member of the Bc1-2 family that promotes apoptosis. EMBO J. 1998; 17 (2):384-395). Bim has three major isoforms generated by alternative splicing, BimEL, BimL and BimS. The shortest form BimS is the most cytotoxic isoform (Weber A, Paschen S A, Heger K, et al. BimS-induced apoptosis requires mitochondrial localization but not interaction with anti-apoptotic Bel-2 proteins. J. Cell Biol. 2007; 177 (4):625-636). Previous work has shown that the transcription of Bim is regulated by the forkhead transcription factor FKHR-L1, a downstream effector of PI3K (Dijkers P F, Medema R H, Lammers J W, Koenderman L, Coffer P J. Expression of the pro-apoptotic Bc1-2 family member Bim is regulated by the forkhead transcription factor FKHR-L1. Curr Biol. 2000; 10 (19):1201-1204). […] Thus, compound A induced MM cell apoptosis may be caused by up-regulation of cytotoxic BimS and down-regulation of anti-apoptotic XIAP and Bc1-XL.
(A). […]

In the case of `Nc1cc(C(F)(F)F)c(-c2cc(N3CCOCC3)nc(N3CCOCC3)n2)cn1` [compound A, 5-(2,6-di-morpholin-4-yl-pyrimidin-4-yl)-4-trifluoromethyl-pyridin-2-ylamine], the IC50 (ARK) is reported as 1 to 10 µM, the IC50 (ARP1) is reported as 1 to 10 µM and the IC50 (MM.1R) is reported as 1 to 10 µM. The IC50 (MM.1S) was < 1 µM, the IC50 (U266) was 10 to 100 µM and the “primary MM cells apoptosis” value (CD138+ primary MM cells) was “more than 70%”. The “cytotoxicity toward CD138− stromal cells” value [1] was “significantly lower cytotoxicity”, the “toxicity toward normal PBMCs” value ([2]; 0 to 1 mM) was “comparably low toxicity” and the PBMC apoptosis ([2]; 10 μM) was “less than 40%”. For the same molecule, the PBMC apoptosis ([2]; 100 μM) was “less than 40%”, the “p-Akt at Ser473 and Thr308” value ([3]; 10 μM compound A) was “down-regulated” and the “total Akt levels” value ([3]; ARP1 and MM.1R cells, 10 μM) was “decreased”. The p-P70S6K levels ([3]; tested MM cell lines, 10 μM) was “decreased”, the “total P70S6K expression” value ([3]; tested MM cell lines, 10 μM) was “remained constant” and the “cyclin D1 expression” value [4] was “down-regulated”. For the same molecule, the “p27 (Kip1) protein expression” value [4] was “up-regulated”, the Bc1-XL expression [5] was “down-regulated” and the BimS expression [5] was “up-regulated”. For the same molecule, the XIAP expression [5] was “down-regulated”.
